In patent publication US7115740B2, “Pyrimido compounds having antiproliferative activity” (Hoffmann-la Roche Inc., priority 2003, dated 2006):

Compared with COc1ccc(N2Cc3cnc(Nc4ccccc4)nc3N([C@@H](C)CO)C2=O)cc1 [Example 15d, (S)-(+)-1-(2-hydroxy-1-methyl-ethyl)-3-(4-methoxy-phenyl)-7-phenylamino-3,4-dihydro-1H-pyrimido[4,5-d]pyrimidin-2-one], COc1ccc(N2Cc3cnc(Nc4ccccc4)nc3N([C@H](C)CO)C2=O)cc1 [Example 23d, (R)-(−)-1-(2-hydroxy-1-methyl-ethyl)-3-(4-methoxy-phenyl)-7-phenylamino-3,4-dihydro-1H-pyrimido[4,5-d]pyrimidin-2-one] is higher in melting point: 140 to 147 °C for the first, 156 to 163 °C for the second.

First: COc1ccc(N2Cc3cnc(Nc4ccc(F)cc4)nc3N([C@@H](C)CO)C2=O)c(F)c1 [Example 21b, (S)-(+)-3-(2-fluoro-4-methoxy-phenyl)-7-(4-fluoro-phenylamino)-1-(2-hydroxy-1-methyl-ethyl)-3,4-dihydro-1H-pyrimido[4,5-d]pyrimidin-2-one]
Second: COc1ccc(N2Cc3cnc(Nc4ccccc4)nc3N(C[C@@H](C)O)C2=O)cc1 [Example 28d, (R)-(−)-1-(2-hydroxy-propyl)-3-(4-methoxy-phenyl)-7-phenylamino-3,4-dihydro-1H-pyrimido[4,5-d]pyrimidin-2-one]
The melting point of the first is lower: 173 to 177 °C for the first, 189 to 193 °C for the second.

Molecule COc1ccc(N2Cc3cnc(Nc4ccccc4)nc3N(C[C@H](C)O)C2=O)cc1 [Example 31d, (S)-(+)-1-(2-hydroxy-propyl)-3-(4-methoxy-phenyl)-7-phenylamino-3,4-dihydro-1H-pyrimido[4,5-d]pyrimidin-2-one] has a melting point of 188 to 193 °C.
